In patent US20050245455A1, “Gonadotropin releasing hormone antagonists in gel-forming concentrations” (priority 2001, published 2005):
Where a SMILES comes first, the peptide text is derived from it. [ ]: non-standard residue; d: D form. The star is where a group is joined. dPhe(4-NHCONH2) = NC(=O)Nc1ccc(C[C@@H](N)C(=O)O)cc1; Dihydroorotyl(S) = O=C1C[C@@H](C(=O)*)NC(=O)N1; dPhe(4-Cl) = N[C@H](Cc1ccc(Cl)cc1)C(=O)O; Phe(4-NH2) = Nc1ccc(C[C@H](N)C(=O)O)cc1; d2Nal = N[C@H](Cc1ccc2ccccc2c1)C(=O)O; Lys(iPr) = CC(C)NCCCC[C@H](N)C(=O)O; d3Pal = N[C@H](Cc1cccnc1)C(=O)O

Conditions: dog, in vivo, sc

- Fraction of the total dose absorbed, subcutaneous compared to intramuscular administration: almost twice as high
Compound: CC(=O)N[C@H](Cc1ccc2ccccc2c1)C(=O)N[C@H](Cc1ccc(Cl)cc1)C(=O)N[C@H](Cc1cccnc1)C(=O)N[C@@H](CO)C(=O)N[C@@H](Cc1ccc(NC(=O)[C@@H]2CC(=O)NC(=O)N2)cc1)C(=O)N[C@H](Cc1ccc(NC(N)=O)cc1)C(=O)N[C@@H](CC(C)C)C(=O)N[C@@H](CCCCNC(C)C)C(=O)N1CCC[C@H]1C(=O)N[C@H](C)C(N)=O [Peptide 1, Ac-DNal-DCpa-DPal-Ser-Aph(L-Hor)-DAph(CONH2)-Leu-Lys(iPr)-Pro-DAla-NH2] (Ac-[d2Nal][dPhe(4-Cl)][d3Pal]S[Phe(4-NH2)](Dihydroorotyl(S))[dPhe(4-NHCONH2)]L[Lys(iPr)]P[dA]-NH2)
